In patent publication US6420570B1, “Psoralen compounds” (priority 1993, dated 2002):
Where a name gives a salt, the structure may show the parent alone. Read-outs that look alike come from different tables or passages of the source.

Assays:
TA1537 = assay: Ames assay, dark mutagenicity, strain TA1537; conditions: TA1537 −S9; 10 μg/plt
Experimental: (§1) In this example the compounds of the present invention are tested for their dark mutagenicity using an Ames assay. The procedures used for the Salmonella mutagenicity test as described in detail by Maron and Ames were followed exactly. Maron, D. M. and B. N. Ames, Mutation Research 113:173 (1983). A brief description for each procedure is given here. The tester strains TA97a, TA98, TA100, TA102, TA1537 and TA1538 were obtained from Dr. Ames. TA97a, TA98, TA1537 and TA1538 are frameshift tester strains. TA100 and TA102 are base-substitution tester strains. Upon receipt each strain was cultured under a variety of conditions to confirm the genotypes specific to the strains.
(§2) The first tests done with the strains were to determine the range of spontaneous reversion for each of the strains. With each mutagenicity experiment the spontaneous reversion of the tester strains to histidine independence was measured and expressed as the number of spontaneous revertants per plate. This served as the background controls.
(§3) For all experiments, the pre-incubation procedure was used. In this procedure one vial of each tester strain was thawed and 20 μL of this culture was added to 6 mL of Oxoid Nutrient Broth #2. This solution was allowed to shake for 10 hours at 37° C. In the pre-incubation procedure, 0.1 mL of this overnight culture was added to each of the required number of sterile test tubes. To half of the tubes 0.5 mL of a 10% S-9 solution containing Aroclor 1254 induced rat liver extract (Molecular Toxicology Inc., Annapolis, MD), and MgCl2, KCl, glucose-6-phosphate, NADP, and sodium phosphate buffer (Sigma, St. Louis. Mo.) were added. To the other half of the tubes 0.5 mL of 0.2M sodium phospate buffer, pH 7.4, was used in place of the S-9 mixture (the -S9 samples) Finally 0.1 mL of the test solution containing either 0.0.1, 0.5, 1, 5, 10, 50, 100, 250, or 500 μg/mL of the test compound was added. The 0.7 mL mixture pre-incubated while shaking for 20 minutes at 37° C. After shaking, 2 mL of molten top agar supplemented with histidine and biotin were added to the 0.7 mL mixture and immediately poured onto a minimal glucose agar plate (volume of base agar was 20 ml.). The top agar was allowed 30 minutes to solidify and then the plates were inverted and incubated for 44 hours at 37° C. After incubation the number of revertant colonies on each plate were counted. […] (“n” represents the number of replicates performed for each data point.)
(§4) Maron and Ames (1983) describe the conflicting views with regard to the statistical treatment of data generated from the test.

TA1538 = assay: Ames assay, dark mutagenicity, strain TA1538; conditions: TA1538; in the presence of S9
Experimental: as §1, §2, §3, §4

cell-free virus (HIV) = assay type: cell-based; conditions: for HIV Log Kill 64 μM / HIV Log Kill 16 μM / HIV Log Kill 32 μM: 1 minute irradiation
Experimental: Pathogen inactivation efficiency of several compounds of the present invention was evaluated by examining the ability of the compounds to inactivate cell-free virus (HIV). Inactivation of cell-free HIV was performed as follows.
As in the R17 assay, small aliquots of the compounds listed in TABLES 8 and 9, below, at the concentrations listed in the table, were added to stock HIV-1 to a total of 0.5 mL. The stock HIV (10^5-10^7 plaque forming units/mL) was in DMEM/15% FBS. […] Controls included HIV-1 stock only, HIV-1 plus UVA only, and HIV-1 plus the highest concentration of each psoralen tested, with no UVA. Post irradiation, all samples were stores frozen at −70° C. until assayed for infectivity by a microtiter plaque assay. Aliquots for measurement of residual HIV infectivity in the samples treated with a compound of the present invention were withdrawn and cultured.
Residual HIV infectivity was assayed using an MT-2 infectivity assay. […] The assay medium was 85% DMEM (with a high glucose concentration) containing 100 μg of streptomycin, 100 U of penicillin, 50 μg of gentamicin, and 1 μg of amphotericin B per mL, 15% FBS and 2 μg of Polybrene (Sigma Chemical Co., St. Louis, Mo.) per mL. Test and control samples from the inactivation procedure were diluted in 50% assay medium and 50% normal human pooled plasma. The samples were serially diluted directly in 96-well plates (Corning Glass Works, corning, N.Y.). The plates were mixed on an oscillatory shaker for 30 seconds and incubated at 37° C. in a 5% CO2 atmosphere for 1 to 18 hours. […] After an additional 1 hour of incubation at 37° C. in 5% CO2, 0.075 mL of assay medium containing 1.6% SeaPlaque agarose (FMC Bioproducts, Rockland, me.) and prewarmed to 38.5° C. was added to each well. The plates were kept at 37° C. for a few minutes until several plates had accumulated and then centrifuged in plate carriers at 600×g for 20 minutes in a centrifuge precooled to 10° C. In the centrifuge, cell monolayers formed prior to gelling of the agarose layer. The plates were incubated for 5 days at 37° C. in 5% CO2 and stained by the addition of 0.05 mL of 50 μg/mL propidium iodide (Sigma Chemical Co.) in phosphate-buffered saline (pH 7.4) to each well. After 24 to 48 hours, the red fluorescence-stained microplaques were visualized by placing the plates on an 8,000 μW/cm^2 304 nm UV light box (Fotodyne, Inc., New Berlin, Wis.). The plaques were counted at a magnification of ×20 to ×25 through a stereomicroscope. “n” represents the number of runs for which the data point is an average.

TA100 = tested on: TA100
Experimental: as §1, §2, §3, §4

R17 [1] = assay: R17 bacteriophage inactivation screen, varying compound concentration; assay type: cell-based; conditions: for R17 log kill 16 uM / R17 log kill 32 uM / R17 log kill 64 uM: starting titer approx. 7.1 logs
Experimental: The assay used to predict pathogen inactivation efficiency and to determine nucleic acid binding of the photoreactive binding compounds of the present invention was that in which a bacteriophage, R17, in solution with the desired substrate was irradiated. The ability of the phage to subsequently infect bacteria and inhibit their growth was measured. The bacteriophage was selected for its relatively accessible nucleic acid such that the culture growth inhibition would accurately reflect nucleic acid damage by the test compounds. The bacteriophage assay for nucleic acid binding to test compounds offers a safe and inexpensive procedure to identify compounds likely to display efficient pathogen inactivation. […] An aliquot (0.5 mL) was transferred to a 1.5 mL, snap-top polyethylene tube. An aliquot (0.004-0.040 mL) of the test compound stock solution prepared in water, ethanol or dimethylsulfoxide at 0.80-8.0 mM was added to the tube. Compounds were tested at concentrations between 4 μM and 320 μM. (AMT is commercially available from HRI, Inc., Concord, Calif.; 8-MOP is commercially available from Sigma, St. Louis, Mo.). The tubes were placed in a light device as described in EXAMPLE 1 and irradiated for between 1 and 10 minutes. […] To make the dilutions, a 0.100 mL aliquot of the irradiated solution of phage and test compound was added to the first dilution tube of 0.4 mL of media then 0.020 mL of this solution was added to the second tube of 0.5 mL medium (1:25). The second solution was then diluted serially (1:25) into the remaining tubes. […] After the top agar hardened, the plates were incubated at 37° C. overnight. The plaque forming units were then counted the following morning and the titer of the phage remaining after phototreatment was calculated based on the dilution factors. The following controls were run: the “phage only” in which phage was not treated with test compound and not irradiated (listed as “starting titer” in the tables below); the “UV only” in which the phage was irradiated in the absence of test compound; and the “dark” control in which the phage/test compound solution was not irradiated before it was diluted and plated.

R17 [2] = assay: R17 inactivation at constant concentration, varying doses of UV light; assay type: cell-based, bacteriophage R17; conditions: UV doses 1.0 to 3.0 J/cm^2, FIGS. 11-17
Experimental: Compounds of the present invention were also tested at a constant concentration for varying doses of UV light. Three sets of 1.5 mL tubes were prepared containing 0.6 mL aliquots of R17 in DMEM (prepared as described above). The compound tested was added at the desired concentration and the samples were vortexed. The samples were then irradiated at intervals of 1.0 J/cm^2, until 3.0 J/cm^2 was reached. Between each 1.0 J/cm^2 interval, 100 μL was removed from each sample and placed in the first corresponding dilution tube, then five sequential dilutions were performed for each compound tested, at all 3 irradiation doses, as described above in this example.
Then 50 μL of Hfr 3000 bacteria was added to each tube, 3 mL of top agar was added and the tube contents were vortexed. The contents of each tube was poured into its own LB plate and the plates were incubated overnight at 37° C. Plaques were counted by visual inspection the following morning.

[3] = Table 8, HIV starting titer approximately 5 logs
[4] = Table 9, HIV starting titer approximately 5.4 logs

SMILES	HIV Log Kill 64 μM (cell-free virus (HIV); [3]) [log]	HIV Log Kill 16 μM (cell-free virus (HIV); [3]) [log]	HIV Log Kill 32 μM (cell-free virus (HIV); [3]) [log]	HIV Log Kill 16 μM (cell-free virus (HIV); [4]) [log]	HIV Log Kill 32 μM (cell-free virus (HIV); [4]) [log]	HIV Log Kill 64 μM (cell-free virus (HIV); [4]) [log]	R17 inactivation compared with AMT (R17 [2])	also measured
Nc1c2ccccc2nc2ccccc12 [9-Aminoacridine, reference compound]	–	–	–	–	–	–	–	revertant colonies per plate, positive control (TA1537): 284
Cc1oc2c(C)c3oc(=O)cc(C)c3cc2c1CNCCN [Compound 1, 4′-(4-amino-2-aza)butyl-4,5′,8-trimethylpsoralen dihydrochloride]	2.1	–	–	–	–	–	–	dose at which the only mutagenic response (weak frameshift mutagen) was detected (TA1538): 5 μg/plate; mutation in the TA100 strain (TA100; TA100, with and without S9): only in the absence of S9; logs killed in the "dark" control (R17 [1]; Table 3, runs 1-3, at most): ≤ 0.1 logs; R17 inactivation efficiency compared with 8-MOP (R17 [1]; Table 4): much R17 inactivatiotn efficiency than does 8-MOP; R17 Log Kill 8 uM (R17 [1]; Table 5, 8 uM, 1 minute irradiation, starting titer approx. 7.2 logs): 1.7 log; R17 Log Kill 16 uM (R17 [1]; Table 5, 16 uM, 1 minute irradiation, starting titer approx. 7.2 logs): 2.8 log; R17 Log Kill 32 uM (R17 [1]; Table 5, 32 uM, 1 minute irradiation, starting titer approx. 7.2 logs): 5.3 log; LOG TITER (R17 [1]; experiment 1, 32 μM cmpd, 1′ uva, phage only 7.7): <1 log; LOG TITER (R17 [1]; experiment 1, 32 μM cmpd, 10′ uva, phage only 7.7): <1 log; LOG TITER (R17 [1]; experiment 1, compound only (32 μM), not irradiated, phage only 7.7): 7.6 log; LOG TITER (R17 [1]; experiment 2, 3.2 μM cmpd, 1′ uva, phage only 7.8): 6.9 log; LOG TITER (R17 [1]; experiment 2, 3.2 μM cmpd, 10′ uva, phage only 7.8): 6.1 log; LOG TITER (R17 [1]; experiment 2, compound only (3.2 μM), not irradiated, phage only 7.8): 7.7 log; LOG TITER (R17 [1]; experiment 3, 4 μM cmpd, 1′ uva, phage only 7.3): 6.3 log; LOG TITER (R17 [1]; experiment 3, 8 μM cmpd, 1′ uva, phage only 7.3): 5.6 log; LOG TITER (R17 [1]; experiment 3, 16 μM cmpd, 1′ uva, phage only 7.3): 3.9 log; LOG TITER (R17 [1]; experiment 3, compound only (16 μM), not irradiated, phage only 7.3): 7.3 log
Cc1oc2c(C)c3oc(=O)cc(C)c3cc2c1COCCN [Compound 2, 4′-(4-Amino-2-oxa)butyl-4,5′,8-trimiethylpsoralen Hydrochloride]	>4.5	1.4	3.8	–	–	–	–	HIV inactivation activity compared with AMT (cell-free virus (HIV); concentrations of 64 μM of compound or higher): significantly more active than AMT
Cc1oc2c(C)c3oc(=O)cc(C)c3cc2c1CNCCCN [Compound 5, 4′-(5-amino-2-aza)pentyl-4,5′,8-trimethylpsoralen dihydrochloride]	>2.6	0.9	1.3	–	–	–	–	R17 log kill 16 uM (R17 [1]; Table 6, 16 uM, 1 minute irradiation = 1.2 J/cm^2): 5.6 log; R17 log kill 32 uM (R17 [1]; Table 6, 32 uM, 1 minute irradiation = 1.2 J/cm^2): >6.1 log; R17 log kill 64 uM (R17 [1]; Table 6, 1 minute irradiation = 1.2 J/cm^2): >6.1 log
Cc1oc2c(C)c3oc(=O)cc(C)c3cc2c1COCCOCCN [Compound 7, 4′-(7-Amino-2,5-oxa)heptyl-4,5′,8-trimethylpsoralen Hydrochloride]	3.5	0.8	2.1	–	–	–	–	R17 log kill 16 uM (R17 [1]; Table 7, 16 uM, 1 minute irradiation): >6 log; R17 log kill 32 uM (R17 [1]; Table 7, 32 uM, 1 minute irradiation): >6 log; R17 log kill 64 uM (R17 [1]; Table 7, 1 minute irradiation): >6 log
Cc1oc2c(C)c3oc(=O)cc(C)c3cc2c1COCCOCCNCCCCN.Cl.Cl [Compound 8, 4′-(12-Amino-8-aza-2,5-dioxa)dodecyl-4,5′,8-trimethylpsoralen Dihydrochloride]	3.7	1.1	1.9	–	–	–	–	–
Cc1oc2c(C)c3oc(=O)cc(C)c3cc2c1CNCCCOCCCCOCCN [Compound 9]	–	–	–	0.8	1.4	2.7	–	–
Cc1oc2c(C)c3oc(=O)cc(C)c3cc2c1CNCCCCCN.Cl.Cl [Compound 10, 4′-(7-amino-2-aza)heptyl-4,5′,8-trimethylpsoralen dihydrochloride]	–	–	–	2.0	>3.5	>3.5	more efficient at inactivating R17 than was AMT	–
Cc1oc2c(C)c3oc(=O)cc(C)c3cc2c1CNCCCNCCCN [Compound 12]	–	–	–	0.4	0.8	1.3	more efficient at inactivating R17 than was AMT	–
Cc1oc2c(C)c3oc(=O)cc(C)c3cc2c1CNCCCNCCCCNCCCN.Cl.Cl.Cl.Cl [Compound 15, 4′-(14-Amino-2,6,11-triaza)tetradecyl-4,5′,8-trimethylpsoralen Tetrahydrochloride]	–	–	–	–	–	–	more efficient at inactivating R17 than was AMT	–
Cc1cc(=O)oc2c(C)c3oc(CNCCCCN)c(C)c3cc12.Cl.Cl [Compound 17, 5′-(6-Amino-2-aza)hexyl-4,4′,8-trimethylpsoralen Dihydrochloride]	–	–	–	1.2	–	3.4	more efficient at inactivating R17 than was AMT	–
Cc1cc(=O)oc2c(C)c3oc(COCCN)c(C)c3cc12 [Compound 18]	–	–	–	1.0	1.0	3.1	–	–
[N-]=[N+]=[N-] [sodium azide, reference compound]	–	–	–	–	–	–	–	revertant colonies per plate, positive control (TA100; TA100 −S9, 1.5 μg/plate): 965
